Where “and” joins values, the source holds several entries; their conditions need not be identical. Equal values may be shown once.
How the values were obtained:
PC3-mice = test: Biodistribution in PC3-mice incl. blocking; format: in vivo, mouse; settings: PC3-mice
Protocol: Male athymic Balb/C nude mice (6 weeks/20–25 g) were implanted with PC3 cells (3.5 × 10^6/100 µL PBS) into their right shoulder to develop tumors. The animals were used for biodistribution and PET/SPECT/CT imaging studies, once tumors reached 250–300 mm^3.
All mice were euthanized with intraperitoneal injection of pentobarbital (150 mg/kg), and selected organs were dissected, weighed, and measured for radioactivity using a gamma-counter. Results are expressed as % injected activity per gram tissue (% I.A./g), presented as mean ± SD (n = 3–4).

FAP = target: T1, FAP (Homo sapiens, UniProt Q12884); test: Saturation binding on FAP+ CAFs; settings: listed as 68/natGa-DOTAGA.Glu.(FAPI)2
T1 construct: the CAF cells overexpressing FAP were seeded at a density of 0.8-1 million cells per well; host or cells: hTERT PF179T prostate cancer-associated fibroblasts
T1 sequence (Q12884 1-760): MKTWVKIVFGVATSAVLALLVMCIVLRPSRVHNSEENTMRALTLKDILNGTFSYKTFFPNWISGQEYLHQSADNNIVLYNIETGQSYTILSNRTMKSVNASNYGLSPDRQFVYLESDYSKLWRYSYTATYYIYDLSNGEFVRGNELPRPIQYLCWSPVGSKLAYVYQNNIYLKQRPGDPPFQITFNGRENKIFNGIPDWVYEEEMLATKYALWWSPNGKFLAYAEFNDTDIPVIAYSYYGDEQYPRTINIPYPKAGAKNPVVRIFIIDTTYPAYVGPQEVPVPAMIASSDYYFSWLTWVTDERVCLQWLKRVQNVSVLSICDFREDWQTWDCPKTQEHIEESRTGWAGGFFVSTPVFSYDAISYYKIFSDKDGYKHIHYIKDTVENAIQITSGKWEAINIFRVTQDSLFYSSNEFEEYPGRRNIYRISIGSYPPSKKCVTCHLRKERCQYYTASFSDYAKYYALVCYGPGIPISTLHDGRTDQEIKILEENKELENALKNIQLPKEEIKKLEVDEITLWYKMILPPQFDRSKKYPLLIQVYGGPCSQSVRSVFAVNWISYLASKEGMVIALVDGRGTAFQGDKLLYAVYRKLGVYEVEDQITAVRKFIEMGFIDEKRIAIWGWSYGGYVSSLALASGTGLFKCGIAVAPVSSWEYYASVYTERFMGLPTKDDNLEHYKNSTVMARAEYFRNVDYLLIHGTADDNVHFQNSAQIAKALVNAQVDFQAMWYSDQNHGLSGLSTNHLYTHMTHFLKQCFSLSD
Protocol: For receptor saturation studies, FAP^+ CAFs were incubated with 0.1 to 10 nM of the radioligands. For internalization studies, approximately 2.5 pmol of the radioligands were added to CAFs followed by incubation for 15, 30, 60, 90, 120, 180 and 240 min for the ^68Ga-labeled or 30, 60, 120, 240 and 360 min for the ^177Lu-labeled radioligands at 37 °C, 5% CO2. For the externalization studies, approximately 2.5 pmol of the ^177Lu-labeled radioligands were added to CAFs followed by incubation for 2 h at 37 °C, 5% CO2. The amount of externalized activity was measured at 0, 10, 20, 30, 60, 120, 240, and 1440 min (Supplemental Data).
For receptor saturation analysis, the CAF cells overexpressing FAP were seeded at a density of 0.8-1 million cells per well in 6-well plates, pre-coated with BME (Cultrex Reduced Growth Factor Basement Membrane Extract, RGF BME, R&D System, Minneapolis, USA) to enhance cell attachment. The cells were incubated overnight with medium (EMEM supplemented and containing 10% FBS, 100 U/mL penicillin and 100 μg/mL streptomycin). The next day, the medium was removed and the cells were incubated for 30 minutes at 37 °C, with 0.8 mL of fresh medium. Afterwards, the plates were placed on ice for 30 minutes followed by incubation with increasing concentrations of ^68/natGa- and ^177/natLu-labelled DOTAGA.Glu.(FAPI)2 and DO3A.Glu.( FAPI)2 (0.1-10 nM final concentration in the wells). After the addition of the radioligands, the cells were incubated for 120 minutes at 4 °C. Non-specific binding was determined in the presence of UAMC1110 at a final concentration of 1 μM. After the completion of the incubation, the cells were washed twice with ice-cold PBS, followed by solubilization with 1 M NaOH. The cell-associated radioactivity was measured using a gamma-counter. Specific binding was plotted against the total molar concentration of the added radiotracer. The Kd values and the concentration of the radioligand required to saturate the receptors (Bmax) were determined by nonlinear regression using GraphPad (Prism 8 Graph Pad Software, San Diego, CA). For all the cell studies the values are normalized for 1x10^6 cells per well and all data are from two independent experiments with triplicates in each experiment.

[1] = Blocking 1h (20 nmol unlabeled precursor)

Uptake in Adrenal (PC3-mice; 1 h p.i.): 3.6±0.6 %I.A./g
Uptake in Blood (PC3-mice; 1 h p.i.): 3.5 ± 0.2 %I.A./g
Uptake in Bone (PC3-mice; 1 h p.i.): 4.9±0.8 %I.A./g
Uptake in Gallbladder (PC3-mice; 1 h p.i.): 3.2±0.6 %I.A./g
Uptake in Heart (PC3-mice; 1 h p.i.): 1.6±0.2 %I.A./g
Uptake in Intestine (PC3-mice; 1 h p.i.): 1.4±0.2 %I.A./g
Uptake in Kidney (PC3-mice; 1 h p.i.): 8.3±0.7 %I.A./g
Uptake in Liver (PC3-mice; 1 h p.i.): 3±0.4 %I.A./g
Uptake in Lung (PC3-mice; 1 h p.i.): 3.7±0.6 %I.A./g
Uptake in Muscle (PC3-mice; 1 h p.i.): 1.9±0.2 %I.A./g
Uptake in Pancreas (PC3-mice; 1 h p.i.): 2.5±0.2 %I.A./g
Uptake in Salivary glands (PC3-mice; 1 h p.i.): 8.2±0.5 %I.A./g
Uptake in Spleen (PC3-mice; 1 h p.i.): 1.6±0.01 %I.A./g
Uptake in Stomach (PC3-mice; 1 h p.i.): 1.3±0.2 %I.A./g
Uptake in Tumor (PC3-mice; 1 h p.i.): 18.2 ± 2.3 %I.A./g and 18.2±3.8 %I.A./g
Uptake in Adrenal (PC3-mice; 2 h p.i.): 4.2±0.2 %I.A./g
Uptake in Blood (PC3-mice; 2 h p.i.): 2.6±0.1 %I.A./g
Uptake in Bone (PC3-mice; 2 h p.i.): 6.4±1.2 %I.A./g
Uptake in Gallbladder (PC3-mice; 2 h p.i.): 2.3±0.4 %I.A./g
Uptake in Heart (PC3-mice; 2 h p.i.): 1±0.01 %I.A./g
Uptake in Intestine (PC3-mice; 2 h p.i.): 1±0.03 %I.A./g
Uptake in Kidney (PC3-mice; 2 h p.i.): 4.8±0.5 %I.A./g
Uptake in Liver (PC3-mice; 2 h p.i.): 1.4±0.04 %I.A./g
Uptake in Lung (PC3-mice; 2 h p.i.): 1.7±0.2 %I.A./g
Uptake in Muscle (PC3-mice; 2 h p.i.): 1.7±0.3 %I.A./g
Uptake in Pancreas (PC3-mice; 2 h p.i.): 2.3±0.1 %I.A./g
Uptake in Salivary glands (PC3-mice; 2 h p.i.): 6.5±1.1 %I.A./g
Uptake in Spleen (PC3-mice; 2 h p.i.): 1±0.1 %I.A./g
Uptake in Stomach (PC3-mice; 2 h p.i.): 0.9±0.04 %I.A./g
Uptake in Tumor (PC3-mice; 2 h p.i.): 17.8 ± 0.5 %I.A./g
Uptake in Adrenal (PC3-mice; 3 h p.i.): 3.9±2 %I.A./g
Uptake in Blood (PC3-mice; 3 h p.i.): 2.5 ± 0.1 %I.A./g
Uptake in Bone (PC3-mice; 3 h p.i.): 6.7±0.1 %I.A./g
Uptake in Gallbladder (PC3-mice; 3 h p.i.): 2.6±1.1 %I.A./g
Uptake in Heart (PC3-mice; 3 h p.i.): 1±0.2 %I.A./g
Uptake in Intestine (PC3-mice; 3 h p.i.): 1.1±0.1 %I.A./g
Uptake in Kidney (PC3-mice; 3 h p.i.): 4.4±0.4 %I.A./g
Uptake in Liver (PC3-mice; 3 h p.i.): 1.6±0.2 %I.A./g
Uptake in Lung (PC3-mice; 3 h p.i.): 1.4±0.1 %I.A./g
Uptake in Muscle (PC3-mice; 3 h p.i.): 1.6±0.2 %I.A./g
Uptake in Pancreas (PC3-mice; 3 h p.i.): 2±0.1 %I.A./g
Uptake in Salivary glands (PC3-mice; 3 h p.i.): 6±0.1 %I.A./g
Uptake in Spleen (PC3-mice; 3 h p.i.): 1.1±0.2 %I.A./g
Uptake in Stomach (PC3-mice; 3 h p.i.): 1±0.1 %I.A./g
Uptake in Tumor (PC3-mice; 3 h p.i.): 18.4 ± 2.2 %I.A./g and 18.4±2.1 %I.A./g
Uptake in Adrenal (PC3-mice; [1]): 0.7±0.1 %I.A./g
Uptake in Blood (PC3-mice; [1]): 1.7±0.5 %I.A./g
Uptake in Bone (PC3-mice; [1]): 0.3±0.2 %I.A./g
Uptake in Gallbladder (PC3-mice; [1]): 5.5±0.6 %I.A./g
Uptake in Heart (PC3-mice; [1]): 0.6±0.1 %I.A./g
Uptake in Intestine (PC3-mice; [1]): 0.6±0.3 %I.A./g
Uptake in Kidney (PC3-mice; [1]): 5.6±1.8 %I.A./g
Uptake in Liver (PC3-mice; [1]): 0.6±0.2 %I.A./g
Uptake in Lung (PC3-mice; [1]): 1.3±0.5 %I.A./g
Uptake in Muscle (PC3-mice; [1]): 0.2±0.1 %I.A./g
Uptake in Pancreas (PC3-mice; [1]): 0.3±0.1 %I.A./g
Uptake in Salivary glands (PC3-mice; [1]): 0.7±0.1 %I.A./g
Uptake in Spleen (PC3-mice; [1]): 0.5±0.1 %I.A./g
Uptake in Stomach (PC3-mice; [1]): 0.5±0.1 %I.A./g
Uptake in Tumor (PC3-mice; [1]): 1.4±0.5 %I.A./g
tumor uptake (PC3-mice; sustained up to 3 h p.i.): 18–19 %I.A./g
Kd (FAP; 0.1 to 10 nM radioligand): 0.8 nM and 0.77 nM
Bmax (FAP): 0.7 ± 0.04 nM and 0.67 ± 0.04 nM
SMILES: N#C[C@@H]1CC(F)(F)CN1C(=O)CNC(=O)c1ccnc2ccc(OCCCCNC(=O)CC[C@H](NC(=O)CCC(C(=O)O)N3CCN(CC(=O)[O-])CCN(CC(=O)[O-])CCN(CC(=O)[O-])CC3)C(=O)NCCCCOc3ccc4nccc(C(=O)NCC(=O)N5CC(F)(F)C[C@H]5C#N)c4c3)cc12.[68Ga+3] (stereo partly drawn) [[^68Ga]Ga-DOTAGA.Glu.(FAPI)2]

From PMC12860872, “Preclinical evaluation of DOTAGA.Glu.(FAPI)2 and DO3A.Glu.(FAPI)2 as theranostics with human dosimetry extrapolation to lutetium-177 and terbium-161 analogs” (European Journal of Nuclear Medicine and Molecular Imaging, 2025)
